Here are results for 20 molecules from patent US20240043794A1, “Chemically Defined Serum Albumin Substitutes” (Life Technologies Corporation, priority 2020, published 2024).

Where two headings read alike, the source gives them in different places.

Series [1] deals with Rat cortical neuron (RCN) cells. In words: Rat cortical neuron (RCN) survival in neurobasal medium with ITS. The class given is cell-based. The settings on record: for RCN cell survival: increasing concentrations, assessed on day 6. From the text: (§1) Trolox (6-hydroxy-2,5,7,8-tetramethylchroman-2-carboxylic acid), a water-soluble derivative of Vitamin E, was investigated as a replacement for albumin. […] Without any anti-oxidant, aged neurons started to degenerate at about day 4, leaving few viable neurons left on the plate.

In series [2] the test system is rat neurons. The experiment in a line: Rat neuron viability with low or high GSH or lipoic acid. Format: cell-based. Conditions: low or high concentration, compared to control culture. The method, then: Applicants then tested chemically defined components that may replace the catalase and thiol antioxidant activity of albumins. GSH and lipoic acid were assessed for their ability to provide catalase and thiol antioxidant activity by culturing rat neurons in the presence of either low or high concentrations of GSH or lipoic acid and subsequently assaying cell viability.

Series [3] deals with rat neuron cells. The experiment in a line: Rat neuron viability with synthetic peptides replacing albumin. Format: cell-based. The settings on record: for rat neuron cell growth: neurobasal medium with ITS, day 5, Calcein AM, FIG. 20; for rat neuron cell viability, HSA supportive properties: culture medium lacking albumin, FIG. 10; for viability of cultured rat neuron cells, HSA-like function: FIG. 11. From the text:
Albumins such as HSA have a metal binding site, which functions as a chelator of transition metals that are toxic to neuron cells. Applicants therefore investigated whether HSA may be replaced by a synthetic peptide, which mimics the high affinity binding of the functional metal binding site. […] Peptide B, which is the Peptide C sequence extended by 5 additional flanking HSA residues on either end, was similarly non-functional. […] Without wishing to be bound by scientific theory, the additional amino acid residues may block or otherwise inhibit the chelating functions of the Peptide C sequence.
The importance of Peptide C ionic property and sequence specificity in conferring enhancing properties to cell cultures was investigated. The tetrapeptide DAHK (SEQ ID NO:1) is a sequence comprising negatively, neutral, and two positively charged amino acids (−X++). […] To assess if amino acid sequence or charge specificity confers beneficial properties, a scrambled Peptide C sequence was prepared and tested. The scrambled peptide comprising the sequence AKDH (SEQ ID NO: 3; scramble) and charge of X+−+ was tested, and results are shown in FIG. 11.
To determine the impact of peptide length, Applicants assessed a variety of peptides that varied both in length and in the identity of the amino acid residue(s) that flank the Peptide C DAHK sequence (SEQ ID NO:1). Further, to assess the effect of ionic property, peptides were tested that included amino acid substitutions to the peptide of SEQ ID NO:1. The amino acid substitutions were designed to retain ionic and hydrophobic properties of SEQ ID NO:1, namely by preserving the order of negatively charged, hydrophobic uncharged, and positively charged residues. […] The cultures were further supplemented with rHSA, or a variation of the Peptide C derived synthetic peptide.
In a first set of cell cultures, the synthetic peptides included the DAHK (SEQ ID NO:1) amino acid sequence or peptides with additional residues on one or both the N-terminus and C-terminus of SEQ ID NO:1. On day 5 of culturing, the cells were labeled with Calcein AM and counted. […] That is, the length of adjacent residues on the N-terminus and C-terminus of the peptide is not critical for maintaining the function of peptide C unless the conformation is impacted as so not to maintain its beneficial properties in cell culture.

Series [4] can be described thus: Water solubility. The settings on record: compared to Vitamin E. The class given is physicochemical.
Text: as §1

Series [5] deals with human neural stem cells (NSC). The experiment in a line: B-27 supplemented cell culture performance of albumins, human NSC. The class given is cell-based. Conditions: B-27 supplemented culture. The method, then:
(§2) Commercially available albumins were analyzed for performance in cell cultures. Bovine serum albumin (BSA), human serum albumin (HSA) and recombinant human serum albumin (Rec HSA) from various sources (including different manufacturers, bovine, human, recombinant HSA (made in yeast or rice), and Freestyle CHO MAX media (Thermo Fisher cat. no. K900020) were analyzed. B-27 (Thermo Fisher Scientific cat. no. 17504044) supplemented cell cultures for mouse pluripotent stem cells (PSC), primary rat neurons, or human neural stem cells (NSC) were prepared (approx. 0.5 to 1× final concentration of B27 in medium). The cultures varied only in the source or type of albumin present. Results shown in FIG. 1A illustrate that significant performance differences existed among the albumins tested, and further that performance is dependent on cell type. In fact, two cultures comprising the same cell line and differing only in addition of BSA1 or BSA2 differed in performance.

Series [6] concerns FoxG1 expression in pluripotent stem cells (PSC). In words: FoxG1 expression and specification of PSC differentiation, ICC and qPCR. Format: cell-based, human. The method, then:
Peptide C (SEQ ID NO:1) was assessed for its effect on cell differentiation. […] Without wishing to be bound by theory, this was likely due to variations in cholesterol levels within the albumin samples. To assess the effect of the tetrapeptide […] on cell differentiation, pluripotent stem cells (PSC) were cultured in the presence either BSA1, BSA2, or peptide C. […] Results are shown in FIGS. 17A and 17B, respectively. […] Upon differentiation, cells will develop their positional identity such as forebrain, midbrain, hindbrain etc. Specification is the step where PSC develop this positional identification.

Series [7] relates to Mouse embryonic stem cells (mESC). In words: mESC proliferation, PrestoBlue assay. Format: cell-based. Conditions: compared to BSA1. The method, then:
(§3) BSA1 and BSA2 were further analyzed for their effect on stem cells. Mouse embryonic stem cells (mESC) or human neural stem cells (hNSC) were grown in cell culture media containing BSA1 or BSA2, and proliferation was measured. Proliferation of mESCs was measured using PrestoBlue assay (Thermo Fisher Scientific) according to the manufacturer's protocol. Proliferation of hNSCs was measured with VI-CELL™ XR cell counting assay (Beckman Coulter) according to the manufacturer's protocol.

For series [8], the system named is human neural stem cells (hNSC). In words: hNSC proliferation, VI-CELL XR cell counting assay. The class given is cell-based. Conditions: compared to BSA1. The method, then: as §3
The subject of series [9] is mouse pluripotent stem cells (PSC). In words: B-27 supplemented cell culture performance of albumins, mouse PSC. Format: cell-based. Conditions: B-27 supplemented culture. The method, then: as §2
Series [10] has as its system neuronal cell. In words: Interactions between B27 supplement components and albumins, neuronal cell viability. The class given is cell-based. The settings on record: B27-supplemented media. The method, then:
Next, interactions between different components of B27 supplement and various albumins were analyzed (FIGS. 1B-1J). The effect of these molecular interactions were also assessed for their effect on neuronal cell stability in cell culture.

For series [11], the system named is rat neurons. In words: Calcein AM viability assay of rat neurons in neurobasal medium with ITS.
Method: (§5) The effect of different BSAs on cell viability was tested using the eBioscience™ Calcein AM Viability Dye, according to manufacturer's protocol. Briefly, rat neurons were cultured in neurobasal medium supplemented with ITS and BSA1 or BSA2 at a concentration of 0.25%.
(§6) The ability of antioxidant to reverse iron-induced toxicity was then investigated. Tocopherol at a concentration of 2 μg/mL in neurobasal medium supplemented with lean supplement (Insulin-Transferrin-Selenium, ITS) was added to cultured rat neuron cells and either BSA1 or BSA2.
Series [12] has as its system mouse embryonic stem cell (mESC). The experiment in a line: Copper-stressed mESC proliferation, PRESTOBLUE viability. The class given is cell-based. Conditions: 50 μM copper, 100 μg/mL or 50 μg/mL peptide. The method, then: (§4) The effect of metals and synthetic peptides were further assessed in mouse embryonic stem cell (mESC) and HEK293 cell proliferation cultures. mESC and HEK293 cultures were spiked with 50 μM copper, thereby creating a toxic culture environment and inhibiting cell proliferation. […] PRESTOBLUE™ cell viability reagent (Thermo Fisher Scientific, Waltham, MA), was used to assess viability according to the manufacturer's protocol.

Series [13] deals with rat neuron cells. The settings on record: 50 μM copper, neurobasal medium with ITS.
Series [14] has as its system HEK293 cells. In words: Copper-stressed HEK293 proliferation, PRESTOBLUE viability. The class given is cell-based. The settings on record: 50 μM copper, 100 μg/mL or 50 μg/mL peptide. The method, then: as §4
The nature of series [15]: Lot-to-lot consistency and shelf life of the peptide. The class given is physicochemical. The settings on record: multiple lots, in solution.
The test system of series [16] is rat neurons.
Method: as §5, §6
The nature of series [17]: Superoxide Dismutase (SOD) Colorimetric Activity Kit. Conditions: range of concentrations. Format: biochemical.
Method: Applicants first analyzed the superoxide dismutase (SOD) activity of various albumins, utilizing the Superoxide Dismutase (SOD) Colorimetric Activity Kit (Thermo Fisher Scientific, Waltham, MA), according to the manufacturer's protocol. Briefly, SOD activity was assessed utilizing an assay comprising the reaction of a substrate and Xanthine Oxidase to form superoxide (O^−2), the levels of which are decreased by SOD activity.
Next, the ability of chemically defined components to replace SOD antioxidant activity was tested. Mito-Tempo, which scavenges O2•^− in mitochondria, was compared with HSA for its ability to reduce superoxide, as assessed using the Superoxide Dismutase (SOD) Colorimetric Activity Kit (Thermo Fisher Scientific, Waltham, MA), according to the manufacturer's protocol.

Vitamin E: in [1], the RCN cell survival result is given as “reversed cell death”.

Regarding `O=C(O)CCCC[C@@H]1CCSS1` (racemic) [Lipoic acid, lipoic acid], the “rat neuron cell viability” value in [2] is “enhanced rat neuron cell viability”.

On to FRRDAHKSEV [SEQ ID NO:16], for which, in series [3], the “rat neuron cell growth” value is listed as “convey beneficial properties to cell culture”.

Turning to `N[C@@H](CCC(=O)N[C@@H](CS)C(=O)NCC(=O)O)C(=O)O` [GSH, glutathione], the “rat neuron cell viability” value in [2] is “neither concentration of GSH tested showed significant effects on cell viability”.

Regarding `Cc1c(C)c2c(c(C)c1O)CCC(C)(C(=O)O)O2` (stereo not drawn) [Trolox, 6-hydroxy-2,5,7,8-tetramethylchroman-2-carboxylic acid], in [1] (compared to Vitamin E), the working range entry is recorded as “wider working range than Vitamin E”. Further, the RCN cell survival result in series [1] is listed as “reversed cell death”. Besides, in series [4], the water solubility entry is on record as “higher water solubility”.

Regarding “BSA2: BSA from a second source; fatty acid rich”, the cell culture performance entry in series [5] and in series [9] was “caused toxicity” in each case. In addition, the “specification of PSC differentiation” value in series [6] was “specification of PSC differentiation was impacted”. Further, the “proliferation of mESC” value in series [7] is on record as “reduces proliferation”. In addition, the “proliferation of hNSC” value in series [8] is given as “reduces proliferation”.

Regarding `CC(=O)Oc1c(C)c(C)c2c(c1C)CCC(C)(CCC[C@H](C)CCC[C@H](C)CCCC(C)C)O2` (stereo partly drawn) [X2, Tocopherol acetate], the “effect on neuronal cell viability of B27 component interacting with BSA and HSA” value in series [10] is given as “positive effects on neuronal cell viability”.

Tocopherol [reference compound]: the “effect on neuronal cell viability of B27 component interacting with BSA and HSA” value in [10] is recorded as “positive effects on neuronal cell viability”. Further, the “reversal of decreased viability due to BSA1 or iron” value in [11] (2 μg/mL) is “reversed decreased viability of the rat neuron cells”.

For the molecule GVFRRDAHKSEVAH [Peptide B], the “rat neuron cell viability, HSA supportive properties” value in [3] is recorded as “non-functional”.

For DAHK [Peptide C], the “rescue of copper stressed cells” value in [12] was “rescued the stressed cells in a concentration dependent manner”. In series [13], the “prevention of copper induced toxicity” value is reported as “prevented toxicity even in the presence of copper”. Also, the “rescue of copper stressed cells” value in [14] was “to a lesser extent”. Moreover, in series [6], the “specification of PSC differentiation” value is given as “no significant impact”. For the same molecule, the “lot-to-lot consistency and shelf life” value in [15] is “lot-to-lot consistency and good shelf life, even in solution”. For the same molecule, in [3], the “viability of cultured rat neuron cells, HSA-like function” value (“viability of cultured rat neuron cells” for short) is “functional in improving viability of cultured rat neuron cells” and the “rat neuron cell viability, HSA supportive properties” value is “enhanced rat neuron cell viability”.

RRDAHK [SEQ ID NO:12]: in series [3], the “rat neuron cell growth” value is listed as “convey beneficial properties to cell culture”.

On to RRDAHKSE [SEQ ID NO:15], for which the “rat neuron cell growth” value in series [3] is “convey beneficial properties to cell culture”.

Regarding DTHK [counterpart BSA peptide], the “viability of cultured rat neuron cells” value in series [3] is reported as “functional in improving viability of cultured rat neuron cells”.

For the molecule “BSA1: BSA source with higher iron content; fatty acid free”, the cell culture performance entry in series [5] and in [9] was “supportive properties” throughout. Moreover, the “specification of PSC differentiation” value in [6] is reported as “specification of PSC differentiation was impacted”. Further, the rat neuron viability entry in series [11] (albumin at 0.25%, compared to BSA2) was “reduced viability of rat neurons”.

Take RRDAHKS [SEQ ID NO:13]: in series [3], the “rat neuron cell growth” value is recorded as “convey beneficial properties to cell culture”.

As for `[Fe]` [iron], the rat neuron viability result in series [16] is on record as “rat neuron viability was decreased”.

In the case of FRRDAHKSEVA [SEQ ID NO:17], the “rat neuron cell growth” value in series [3] is reported as “convey beneficial properties to cell culture”.

Turning to AKDH [reference compound], the “viability of cultured rat neuron cells” value in series [3] is reported as “the HSA-like function was abolished”.

As to SAYSRGVFRRDAHKSEVAHRFKD [peptide A], the “rat neuron cell viability, HSA supportive properties” value in [3] is given as “did not retain HSA supportive properties”.

On to `CC1(C)CC(NC(=O)C[P+](c2ccccc2)(c2ccccc2)c2ccccc2)CC(C)(C)N1[O]` [Mito-Tempo, (2-(2,2,6,6-tetramethylpiperidin-1-oxyl-4-ylamino)-2-oxoethyl)triphenylphosphonium chloride], for which the superoxide levels result in series [17] is “decrease superoxide levels in a dose-dependent manner”.
